Data from ChEMBL document CHEMBL1154214, “Scalarane sesterterpenoids: semisynthesis and biological activity” (J Nat Prod, 2009).

Columns and labels:
[1] = test system: Mycobacterium intracellulare; assay: Antimicrobial activity against […] Mycobacterium intracellular ATCC 23068; assay type: functional, organism-based
[2] = test system: SK-MEL; assay: Cytotoxicity against human SK-MEL cells after 48 hrs by Neutral red assay; assay type: functional, cell-based
[3] = test system: Staphylococcus aureus; assay: Antimicrobial activity against methicillin resistant Staphylococcus aureus ATCC 43300; assay type: functional, organism-based
[4] = test system: SK-OV-3; assay: Cytotoxicity against human SKOV3 cells after 48 hrs by Neutral red assay; assay type: functional, cell-based
[5] = test system: BT-549; assay: Cytotoxicity against human BT549 cells after 48 hrs by Neutral red assay; assay type: functional, cell-based
[6] = test system: Vero; assay: Cytotoxicity against african green monkey Vero cells after 48 hrs by Neutral red assay; assay type: cell-based, Chlorocebus sabaeus
[7] = Homo sapiens, SK-MEL, 48 h, read-out: IC50
[8] = Staphylococcus aureus, ATCC 43300, read-out: IC50
[9] = Homo sapiens, SK-OV-3, 48 h, read-out: IC50
[10] = Homo sapiens, BT-549, 48 h, read-out: IC50
[11] = Chlorocebus sabaeus, Vero, 48 h, read-out: IC50
[12] = Mycobacterium intracellulare, ATCC 23068, read-out: IC50

CC(=O)O[C@H]1C[C@H]2[C@]3(C)CC[C@H]4C(C)(C)CCC[C@]4(C)[C@H]3C[C@@H](O)[C@]2(C)c2cocc21 [SCALARAFURAN]
IC50 [1]: Not Active
IC50 ([2]; sk-mel): Not Active
IC50 [3]: Not Active
IC50 ([4]; sk-ov-3): Not Active
IC50 ([5]; bt-549): Not Active
IC50 ([6]; vero): Not Active

CC1(C)CCC[C@]2(C)[C@H]3CC(=O)[C@]4(C)[C@@H](C=O)C(C=O)=CC[C@H]4[C@]3(C)CC[C@@H]12
IC50 [1]: Not Active
IC50 [2, 7]: 14.6 µM
IC50 [3, 8]: 27.8 µM
IC50 [4, 9]: 41.6 µM
IC50 [5, 10]: 15.6 µM
IC50 [6, 11]: 18.2 µM

CO[C@@H]1O[C@@H](OC)[C@H]2C1=CC[C@H]1[C@]3(C)CC[C@H]4C(C)(C)CCC[C@]4(C)[C@H]3C[C@@H](O)[C@]21C
IC50 [1]: Not Active
IC50 ([2]; sk-mel): Not Active
IC50 [3]: Not Active
IC50 ([4]; sk-ov-3): Not Active
IC50 ([5]; bt-549): Not Active
IC50 ([6]; vero): Not Active

CC(=O)O[C@@H]1C[C@@H]2[C@@]3(C)CCCC(C)(C)[C@@H]3CC[C@@]2(C)[C@@H]2CC=C(C=O)[C@H](C=O)[C@@]12C
IC50 [1]: Not Active
IC50 [2, 7]: > 42.7 µM
IC50 [3, 8]: 6.3 µM
IC50 [4, 9]: 23.3 µM
IC50 [5, 10]: 21 µM
IC50 [6, 11]: 22.2 µM

CC(=O)O[C@@H]1OC=C2[C@@H](OC(C)=O)C[C@H]3[C@]4(C)CC[C@H]5C(C)(C)CCC[C@]5(C)[C@H]4C[C@@H](OC(C)=O)[C@]3(C)[C@H]21 [HETERONEMIN ACETATE]
IC50 [1, 12]: 18.8 µM
IC50 [2, 7]: 16.7 µM
IC50 [3]: Not Active
IC50 [4, 9]: 18.8 µM
IC50 [5, 10]: 18.8 µM
IC50 [6, 11]: 9 µM

CC1(C)CCC[C@]2(C)[C@H]3CC(=O)[C@]4(C)[C@H](C=O)C(C=O)=CC[C@H]4[C@]3(C)CC[C@@H]12
IC50 [1]: Not Active
IC50 [2, 7]: 14.3 µM
IC50 [3, 8]: 30.1 µM
IC50 [4, 9]: 31.2 µM
IC50 [5, 10]: 15.6 µM
IC50 [6, 11]: 15.6 µM

CC1(C)CCC[C@]2(C)[C@H]3C[C@@H](O)[C@]4(C)c5cocc5C=C[C@H]4[C@]3(C)CC[C@@H]12
IC50 [1]: Not Active
IC50 ([2]; sk-mel): Not Active
IC50 [3]: Not Active
IC50 ([4]; sk-ov-3): Not Active
IC50 ([5]; bt-549): Not Active
IC50 ([6]; vero): Not Active

CC1(C)CCC[C@]2(C)[C@H]3C[C@@H](O)[C@]4(C)c5cocc5[C@@H](O)C[C@H]4[C@]3(C)CC[C@@H]12 [SESTERSTATIN 5]
IC50 [1]: Not Active
IC50 ([2]; sk-mel): Not Active
IC50 [3]: Not Active
IC50 ([4]; sk-ov-3): Not Active
IC50 ([5]; bt-549): Not Active
IC50 ([6]; vero): Not Active

CC1(C)CCC[C@]2(C)[C@H]3C[C@@H](O)[C@]4(C)[C@H]5COC(=O)C5=CC[C@H]4[C@]3(C)CC[C@@H]12
IC50 [1]: Not Active
IC50 ([2]; sk-mel): Not Active
IC50 [3]: Not Active
IC50 ([4]; sk-ov-3): Not Active
IC50 ([5]; bt-549): Not Active
IC50 ([6]; vero): Not Active

COc1cccc2c1C(=O)c1c(O)c3c(c(O)c1C2=O)C[C@@](O)(C(=O)CO)C[C@@H]3O[C@H]1C[C@H](N)[C@H](O)[C@H](C)O1 [DOXORUBICIN]
IC50 [2, 7]: 1.2 µM
IC50 [4, 9]: 0.8 µM
IC50 [5, 10]: 1.2 µM
IC50 [6, 11]: 6.3 µM

CC1(C)CCC[C@]2(C)[C@H]3C[C@@H](O)[C@]4(C)[C@H](C=O)C(C=O)=CC[C@H]4[C@]3(C)CC[C@@H]12
IC50 [1]: Not Active
IC50 [2, 7]: 18.6 µM
IC50 [3, 8]: 3.8 µM
IC50 [4, 9]: 19.4 µM
IC50 [5, 10]: 12.9 µM
IC50 [6, 11]: 20.7 µM

CC(=O)O[C@@H]1OC=C2[C@@H](OC(C)=O)C[C@H]3[C@]4(C)CC[C@H]5C(C)(C)CCC[C@]5(C)[C@H]4C[C@@H](O)[C@]3(C)[C@H]21 [HETERONEMIN]
IC50 [1, 12]: 2.04 µM
IC50 [2, 7]: 15.3 µM
IC50 [3]: Not Active
IC50 [4, 9]: 3.4 µM
IC50 [5, 10]: 11.2 µM
IC50 [6, 11]: 8.2 µM

CC1(C)CCC[C@]2(C)[C@H]3C[C@@H](O)[C@]4(C)[C@@H](C=O)C(C=O)=CC[C@H]4[C@]3(C)CC[C@@H]12
IC50 [1, 12]: 38.8 µM
IC50 [2, 7]: 26.4 µM
IC50 [3, 8]: 22 µM
IC50 [4, 9]: 31 µM
IC50 [5, 10]: 19.4 µM
IC50 [6, 11]: 19.4 µM

CC(=O)O[C@@H]1C[C@@H]2[C@@]3(C)CCCC(C)(C)[C@@H]3CC[C@@]2(C)[C@@H]2CC=C3C(=O)O[C@@H](O)[C@@H]3[C@@]12C
IC50 [1]: Not Active
IC50 ([2]; sk-mel): Not Active
IC50 [3]: Not Active
IC50 ([4]; sk-ov-3): Not Active
IC50 ([5]; bt-549): Not Active
IC50 ([6]; vero): Not Active

CC1(C)CCC[C@]2(C)[C@H]3C[C@@H](O)[C@]4(C)C(CO)C(CO)=CC[C@H]4[C@]3(C)CC[C@@H]12 (some centres undefined)
IC50 [1]: Not Active
IC50 ([2]; sk-mel): Not Active
IC50 [3]: Not Active
IC50 ([4]; sk-ov-3): Not Active
IC50 ([5]; bt-549): Not Active
IC50 ([6]; vero): Not Active

CC(=O)O[C@@H]1OC=C2[C@@H](OC(C)=O)C[C@H]3[C@]4(C)CC[C@H]5C(C)(C)CCC[C@]5(C)[C@H]4CC(=O)[C@]3(C)[C@H]21
IC50 [1, 12]: 5.1 µM
IC50 ([2]; sk-mel): Not Active
IC50 [3]: Not Active
IC50 [4, 9]: > 37.6 µM
IC50 [5, 10]: > 37.6 µM
IC50 [6, 11]: > 37.6 µM

CC(=O)O[C@@H]1OCC2[C@@H](OC(C)=O)C[C@H]3[C@]4(C)CC[C@H]5C(C)(C)CCC[C@]5(C)[C@H]4C[C@@H](O)[C@]3(C)[C@H]21 (some centres undefined)
IC50 [1]: Not Active
IC50 [2, 7]: > 37.3 µM
IC50 [3]: Not Active
IC50 [4, 9]: 18.3 µM
IC50 [5, 10]: 15.9 µM
IC50 [6, 11]: 36.7 µM

CO[C@H]1O[C@@H](OC)[C@H]2C1=CC[C@H]1[C@]3(C)CC[C@H]4C(C)(C)CCC[C@]4(C)[C@H]3C[C@@H](O)[C@]21C
IC50 [1]: Not Active
IC50 ([2]; sk-mel): Not Active
IC50 [3]: Not Active
IC50 ([4]; sk-ov-3): Not Active
IC50 ([5]; bt-549): Not Active
IC50 ([6]; vero): Not Active

CO[C@@H]1C[C@H]2[C@]3(C)CC[C@H]4C(C)(C)CCC[C@]4(C)[C@H]3C[C@@H](O)[C@]2(C)c2cocc21 [16-O-METHYLSESTERSTATIN 4]
IC50 [1]: Not Active
IC50 ([2]; sk-mel): Not Active
IC50 [3]: Not Active
IC50 ([4]; sk-ov-3): Not Active
IC50 ([5]; bt-549): Not Active
IC50 ([6]; vero): Not Active

O=C(O)c1cn(C2CC2)c2cc(N3CCNCC3)c(F)cc2c1=O [CIPROFLOXACIN]
IC50 ([1]; Mycobacterium intracellulare, ATCC 23068): 0.47 µM
IC50 [3, 8]: 0.14 µM
